Laboratory results taken from patent publication US20140135310A1, “SULPHONAMIDE DERIVATIVES OF ALICYCLIC AMINES FOR THE TREATMENT OF CENTRAL NERVOUS SYSTEM DISEASES” (Adamed Sp. z o.o., priority 2011, published 2014).
Read-outs that look alike come from different tables or passages of the source.

Experiments:
[1] = molecular target: T1, 5-HT reuptake (rat brain synaptosomes) (Rattus norvegicus, UniProt P31652); experiment: 5-HT reuptake, [3H]5-HT incorporation into rat brain synaptosomes; assay type: biochemical; details: 15 min/37° C., read-out: SERT IC50
T1 construct: measuring [^3H]5-HT incorporation into rat brain synaptosomes; from tissue; host or cells: rat brain synaptosomes
T1 sequence (P31652 whole entry): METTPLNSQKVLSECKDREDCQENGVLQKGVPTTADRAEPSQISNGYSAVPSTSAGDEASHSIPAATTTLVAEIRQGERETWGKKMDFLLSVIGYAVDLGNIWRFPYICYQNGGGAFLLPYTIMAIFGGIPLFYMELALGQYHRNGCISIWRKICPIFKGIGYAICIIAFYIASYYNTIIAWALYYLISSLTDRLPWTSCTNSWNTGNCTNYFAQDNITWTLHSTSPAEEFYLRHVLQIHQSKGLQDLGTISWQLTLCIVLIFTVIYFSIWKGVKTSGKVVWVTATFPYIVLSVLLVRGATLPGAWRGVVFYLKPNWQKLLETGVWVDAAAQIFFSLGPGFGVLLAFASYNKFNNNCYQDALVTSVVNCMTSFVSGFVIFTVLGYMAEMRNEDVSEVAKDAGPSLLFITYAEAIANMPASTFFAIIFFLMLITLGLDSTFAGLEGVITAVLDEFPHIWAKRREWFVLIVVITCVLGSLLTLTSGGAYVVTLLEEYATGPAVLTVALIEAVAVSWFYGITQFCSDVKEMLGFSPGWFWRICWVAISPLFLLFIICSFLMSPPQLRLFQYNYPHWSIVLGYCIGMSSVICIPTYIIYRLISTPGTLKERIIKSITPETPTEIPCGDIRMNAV
Description: 5-HT reuptake was tested according to Perovic, S. and Muller, W.E.G. (1995) Arzneim-Forsch. Drug Res., 45: 1145-1148 by measuring [^3H]5-HT incorporation into rat brain synaptosomes. Assay conditions are as follows:
Tracer: [^3H]5-HT (0.2 μCi/ml)
Incubation: 15 min/37° C.

[2] = molecular target: D3 dopaminergic receptors (Homo sapiens, UniProt P35462); experiment: Cellular functional assay, D3 dopaminergic receptors; assay type: cell-based; details: D3 (h), CHO cells; for D3 ag [%]: agonism, percent of control specific agonist response (0.3 μM dopamine for control); for D3 antag [%]: antagonism, stimulus dopamine (10 nM)
D3 dopaminergic receptors, sequence (P35462 whole entry): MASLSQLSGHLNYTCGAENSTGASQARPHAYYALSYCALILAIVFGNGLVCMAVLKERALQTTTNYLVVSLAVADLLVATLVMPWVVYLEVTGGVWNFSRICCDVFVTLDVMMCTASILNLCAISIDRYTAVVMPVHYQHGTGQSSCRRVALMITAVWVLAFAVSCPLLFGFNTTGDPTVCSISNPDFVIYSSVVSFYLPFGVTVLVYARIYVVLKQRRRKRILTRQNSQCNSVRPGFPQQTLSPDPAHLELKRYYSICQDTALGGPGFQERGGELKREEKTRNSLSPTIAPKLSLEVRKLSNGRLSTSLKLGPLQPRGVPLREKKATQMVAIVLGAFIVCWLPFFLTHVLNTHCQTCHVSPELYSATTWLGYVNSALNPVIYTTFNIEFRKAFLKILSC
How it was run: (§1)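 Responses expressed as percent of control specific agonist response; EC50 or IC50 from Hill-equation nonlinear fits of mean replicate concentration-response curves. For antagonists, Kb derived by modified Cheng-Prusoff using reference agonist concentration and its EC50.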

[3] = molecular target: 5-HT6 serotoninergic receptors (Homo sapiens, UniProt P50406); experiment: Cellular functional assay, 5-HT6 serotoninergic receptors; assay type: cell-based; details: agonist mode; percent of control specific agonist response
5-HT6 serotoninergic receptors, sequence (P50406 whole entry): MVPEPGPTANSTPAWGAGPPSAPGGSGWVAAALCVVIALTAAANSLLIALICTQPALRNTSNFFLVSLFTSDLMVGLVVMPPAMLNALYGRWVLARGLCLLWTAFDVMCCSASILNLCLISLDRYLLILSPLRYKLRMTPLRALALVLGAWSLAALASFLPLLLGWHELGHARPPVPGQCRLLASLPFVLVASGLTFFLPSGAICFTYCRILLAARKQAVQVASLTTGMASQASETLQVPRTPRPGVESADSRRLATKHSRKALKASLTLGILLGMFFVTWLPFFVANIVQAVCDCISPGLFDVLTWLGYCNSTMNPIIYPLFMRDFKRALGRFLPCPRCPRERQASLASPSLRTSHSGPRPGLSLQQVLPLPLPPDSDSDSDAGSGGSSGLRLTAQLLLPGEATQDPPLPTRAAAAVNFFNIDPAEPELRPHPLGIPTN
How it was run: as §1

[4] = molecular target: T2, 5-HT2C serotoninergic receptors (Homo sapiens, UniProt P28335); experiment: Cellular functional assay, 5-HT2C serotoninergic receptors; assay type: cell-based
T2 sequence (P28335 33-458): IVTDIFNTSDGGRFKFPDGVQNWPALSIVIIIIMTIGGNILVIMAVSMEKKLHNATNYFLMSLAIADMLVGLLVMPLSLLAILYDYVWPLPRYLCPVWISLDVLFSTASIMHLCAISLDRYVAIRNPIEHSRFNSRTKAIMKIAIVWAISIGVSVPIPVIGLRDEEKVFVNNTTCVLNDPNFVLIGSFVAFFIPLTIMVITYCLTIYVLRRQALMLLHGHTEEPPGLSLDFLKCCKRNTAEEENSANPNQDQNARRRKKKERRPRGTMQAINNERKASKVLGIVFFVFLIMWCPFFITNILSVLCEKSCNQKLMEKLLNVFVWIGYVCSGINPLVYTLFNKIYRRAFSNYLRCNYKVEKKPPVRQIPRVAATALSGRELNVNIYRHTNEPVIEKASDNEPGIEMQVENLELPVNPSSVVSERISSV
Description: (§2) The results are expressed as a percent of control specific agonist response ((measured specific response/control specific agonist response)×100) obtained in the presence of the test compounds.
(§3) The EC50 values (concentration producing a half-maximal specific response) and IC50 values (concentration causing a half-maximal inhibition of the control specific agonist response) were determined by non-linear regression analysis of the concentration-response curves generated with mean replicate values using Hill equation curve fitting (Y=D+[(A−D)/(1+(C/C50)nH)], where Y=specific response, D=minimum specific response, A=maximum specific response, C=compound concentration, and C50=EC50 or IC50, and nH=slope factor). This analysis was performed using a software developed at Cerep (Hill software) and validated by comparison with data generated by the commercial software SigmaPlot® 4.0 for Windows® (© 1997 by SPSS Inc.).
(§4) For the antagonists, the apparent dissociation constants (Kb) were calculated using the modified Cheng Prusoff equation (Kb=IC50/(1+(A/EC50A)), where A=concentration of reference agonist in the assay, and EC50A=EC50 value of the reference agonist).

[5] = molecular target: T3, 5-HT1A serotoninergic receptors (Homo sapiens, UniProt P08908); experiment: Cellular functional assay, 5-HT1A serotoninergic receptors; assay type: cell-based; details: agonist mode; percent of control specific agonist response
T3 sequence (P08908 1-422): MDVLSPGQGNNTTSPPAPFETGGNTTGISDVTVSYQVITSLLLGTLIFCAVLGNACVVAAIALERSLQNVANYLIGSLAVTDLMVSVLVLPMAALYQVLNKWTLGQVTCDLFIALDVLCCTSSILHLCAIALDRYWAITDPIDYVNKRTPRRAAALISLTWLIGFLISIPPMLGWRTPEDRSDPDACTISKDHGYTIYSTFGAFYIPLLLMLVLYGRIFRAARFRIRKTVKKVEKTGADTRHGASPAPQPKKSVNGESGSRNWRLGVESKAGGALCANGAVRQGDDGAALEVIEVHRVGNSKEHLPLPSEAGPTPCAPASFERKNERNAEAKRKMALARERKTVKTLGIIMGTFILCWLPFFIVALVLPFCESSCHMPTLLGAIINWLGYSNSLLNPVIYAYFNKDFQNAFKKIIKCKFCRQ
Description: as §2, §3, §4

[6] = molecular target: 5-HT2A serotoninergic receptors (Homo sapiens, UniProt P28223); experiment: Cellular functional assay, 5-HT2A serotoninergic receptors; assay type: cell-based
5-HT2A serotoninergic receptors, sequence (P28223 whole entry): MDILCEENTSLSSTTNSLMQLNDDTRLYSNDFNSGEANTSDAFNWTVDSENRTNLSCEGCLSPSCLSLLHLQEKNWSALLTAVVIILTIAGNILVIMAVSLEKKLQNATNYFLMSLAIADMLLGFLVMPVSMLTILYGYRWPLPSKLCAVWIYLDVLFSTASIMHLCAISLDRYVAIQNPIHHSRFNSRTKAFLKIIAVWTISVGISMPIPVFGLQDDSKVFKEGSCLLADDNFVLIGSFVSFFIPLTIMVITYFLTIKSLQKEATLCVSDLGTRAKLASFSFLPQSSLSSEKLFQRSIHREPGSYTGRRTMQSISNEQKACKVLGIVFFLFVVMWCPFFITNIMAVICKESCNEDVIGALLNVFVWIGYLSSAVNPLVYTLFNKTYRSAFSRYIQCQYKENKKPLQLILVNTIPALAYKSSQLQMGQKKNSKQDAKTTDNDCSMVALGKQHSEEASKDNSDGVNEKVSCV
How it was run: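 Response expressed as percent of control specific agonist response; EC50 or IC50 from Hill-equation non-linear regression on mean replicate values. For antagonists, apparent Kb derived by modified Cheng-Prusoff using reference agonist concentration and its EC50.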

[7] = agonist mode, percent of control specific agonist response

Cc1cccc(S(=O)(=O)NC2CCN(CCCc3c[nH]c4ccc(Cl)cc34)C2)c1 (stereo not drawn) [Compound 86, N-[1-[3-(5-chloro-1H-indol-3-yl)propyl]pyrrolidin-3-yl]-3-methyl-benzenesulphonamide]
IC50 [1]: 17 nM

O=S(=O)(NCC1CN(CCOc2cccc3ccccc23)C1)c1ccc2ccccc2c1 [Compound 122, N-[[1-[2-(1-Naphthyloxy)ethyl]azetidin-3-yl]methyl]naphthalene-2-sulphonamide]
D3 ag [%] [2]: 38%
D3 antag [%] [2]: 56%
5-HT6 ag [%] [3]: 0%
5-HT2C ag [%] [4, 7]: 78%
5-HT2C antag [%] ([4]; antagonist mode): −10%
5-HT1A ag [%] [5]: 35%

O=S(=O)(NCC1CCN(CCOc2cccc3ccccc23)C1)c1ccc2ccccc2c1 (stereo not drawn) [Compound 124, N-[[1-[2-(1-Naphthyloxy)ethyl]pyrrolidin-3-yl]methyl]naphthalene-2-sulphonamide]
D3 ag [%] [2]: 11%
D3 antag [%] [2]: 43%
5-HT6 ag [%] [3]: 7%
5-HT1A ag [%] [5]: 16%

Cc1c(S(=O)(=O)NCC2CN(CCCc3noc4cc(F)ccc34)C2)sc2ccc(F)cc12 [Compound 130, 5-Fluoro-N-[[1-[3-(6-fluoro-1,2-benzoxazol-3-yl)propyl]azetidin-3-yl]methyl]-3-methyl-benzothiophene-2-sulphonamide]
D3 ag [%] [2]: 5%
D3 antag [%] [2]: 61%
5-HT6 ag [%] [3]: 4%
5-HT2A ag [%] [6, 7]: 0%

Cc1c(S(=O)(=O)NCC2CN(CCCc3noc4cc(F)ccc34)C2)sc2ccc(Cl)cc12 [Compound 131, 5-Chloro-N-[[1-[3-(6-fluoro-1,2-benzoxazol-3-yl)propyl]azetidin-3-yl]-methyl]-3-methyl-benzothiophene-2-sulphonamide]
D3 ag [%] [2]: −13%
D3 antag [%] [2]: 55%
5-HT6 ag [%] [3]: 3%
5-HT2A ag [%] [6, 7]: −2%

O=S(=O)(NCC1CN(CCCc2noc3cc(F)ccc23)C1)c1ccc2ccccc2c1 [Compound 134, N-[[1-[3-(6-Fluoro-1,2-benzoxazol-3-yl)propyl]azetidin-3-yl]methyl]-naphthalene-2-sulphonamide]
5-HT6 ag [%] [3]: 4%
5-HT2A ag [%] [6]: −3%
